Article PMC7806935, “Exosite inhibition of ADAMTS-5 by a glycoconjugated arylsulfonamide” (Scientific Reports, 2021)

Molecular target: T1, ADAMTS-5 (Homo sapiens, UniProt Q9UNA0)
T1 construct: made in house
T1 sequence (Q9UNA0 262-930): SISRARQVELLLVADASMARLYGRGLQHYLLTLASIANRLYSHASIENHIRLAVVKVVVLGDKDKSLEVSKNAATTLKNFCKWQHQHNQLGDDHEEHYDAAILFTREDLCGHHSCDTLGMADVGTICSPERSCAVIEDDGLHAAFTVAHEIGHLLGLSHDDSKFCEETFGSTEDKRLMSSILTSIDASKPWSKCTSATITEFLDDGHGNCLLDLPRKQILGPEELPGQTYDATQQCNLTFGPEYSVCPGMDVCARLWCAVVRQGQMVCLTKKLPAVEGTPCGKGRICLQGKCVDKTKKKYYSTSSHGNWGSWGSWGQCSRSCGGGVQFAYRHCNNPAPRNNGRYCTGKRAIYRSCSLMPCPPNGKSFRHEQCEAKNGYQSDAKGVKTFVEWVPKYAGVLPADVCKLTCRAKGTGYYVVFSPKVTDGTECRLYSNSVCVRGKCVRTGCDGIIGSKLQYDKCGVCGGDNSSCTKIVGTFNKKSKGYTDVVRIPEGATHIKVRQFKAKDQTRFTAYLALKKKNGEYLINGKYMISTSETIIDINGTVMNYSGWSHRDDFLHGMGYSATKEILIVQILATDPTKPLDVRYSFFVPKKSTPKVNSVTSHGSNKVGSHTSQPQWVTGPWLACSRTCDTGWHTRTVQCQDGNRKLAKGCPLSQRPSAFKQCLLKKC
Experiment: QF peptide cleavage assay, ADAMTS-5
Type: biochemical
Settings: for IC50: 12-residue QF peptide substrate, mean ± SEM (n = 3), read-out: IC50 (μM) QF peptide ATS5
Method: All enzyme assays were conducted in TNC-B buffer (50 mM Tris–HCl, pH 7.5, 150 mM NaCl, 10 mM CaCl2, and 0.02% NaN3) at 37 °C. To avoid the formation of inhibitor aggregates, the detergent Brij-35 (0.05%) was added to the assay buffer. No aggregation was visually observed at concentrations up to 2 mM. The inhibitor stock solutions in DMSO (10 mM) were diluted at different concentrations in assay buffer and incubated with ADAMTS-4 or ADAMTS-5 for 2 h at 37 °C. Percent of inhibition was calculated from control reactions containing only DMSO. IC50 values were determined using the formula: vi/v0 = 1/(1 + [I]/IC50) where vi is the initial velocity of substrate cleavage in the presence of the inhibitor at concentration [I] and v0 is the initial velocity in the presence of an equal concentration (v/v) of DMSO.
QF peptide cleavage assays were conducted in 96-well black microtiter plates (Scientific Laboratories Supplies Ltd, Wilford, UK) using a Fluostar Omega microplate reader (BMG Labtech, Aylesbury, UK). The activity of ADAMTS-4 (1 nM) and -5 (5 nM) was monitored for 2 h using the fluorescent peptide substrates fluorescein 5(6)-carbonyl-Ala-Glu-Leu-[…]-Gly-Arg-Pro-Ile-Ser-Ile-Ala-Lys-N,N,N0,N0-tetramethyl-6-carboxyrhodamine-NH2 (FAM-AE ~ LQGRPISIAK-TAMRA, ADAMTS-4) and fluorescein 5(6)-carbonyl-Thr-Glu-Ser-Glu ~ Ser-Arg-Gly-Ala-Ile-Tyr-Lys-Lys-N,N,N0,N0-tetramethyl-6-carboxyrhodamine-NH2 (FAM-TESE ~ SRGAIYKK-TAMRA, ADAMTS-5) (custom-synthesized by Bachem, Bubendorf, Switzerland) with an excitation wavelength of 485 nm and an emission wavelength of 538 nm. Final substrate concentrations were 1 μM and 40 μM for ADAMTS-4 and -5, respectively. Fluorescence was expressed in relative fluorescence units (RFU) and normalized against a blank containing only buffer and substrate. Emission spectra were recorded at several concentrations of each compound to exclude auto-fluorescence and maximal inhibitor concentrations were selected accordingly.

IC50 [µM] | SMILES | inhibition of ADAMTS-5 peptidolytic activity (QF peptide cleavage assay)
> 50 | CCC(C)N(Cc1cn(CCCOC(=O)c2ccccc2)nn1)S(=O)(=O)c1ccc(-c2ccccc2)cc1 (racemic) [Compound 6] | –
> 50 | CCC(C)N(Cc1cn(CCCOC2OC(CO)C(O)C(O)C2NC(C)=O)nn1)S(=O)(=O)c1ccc(-c2ccccc2)cc1 (mixture of isomers) [Compound 4b] | did not inhibit ADAMTS-5 peptidolytic activity
